biological target: Sodium-dependent serotonin transporter (Rattus norvegicus, UniProt P31652); experiment: Inhibition of [3H]5HT reuptake at serotonin transporter in rat brain synaptosomes; type: subcellular
Sequence (P31652 whole entry): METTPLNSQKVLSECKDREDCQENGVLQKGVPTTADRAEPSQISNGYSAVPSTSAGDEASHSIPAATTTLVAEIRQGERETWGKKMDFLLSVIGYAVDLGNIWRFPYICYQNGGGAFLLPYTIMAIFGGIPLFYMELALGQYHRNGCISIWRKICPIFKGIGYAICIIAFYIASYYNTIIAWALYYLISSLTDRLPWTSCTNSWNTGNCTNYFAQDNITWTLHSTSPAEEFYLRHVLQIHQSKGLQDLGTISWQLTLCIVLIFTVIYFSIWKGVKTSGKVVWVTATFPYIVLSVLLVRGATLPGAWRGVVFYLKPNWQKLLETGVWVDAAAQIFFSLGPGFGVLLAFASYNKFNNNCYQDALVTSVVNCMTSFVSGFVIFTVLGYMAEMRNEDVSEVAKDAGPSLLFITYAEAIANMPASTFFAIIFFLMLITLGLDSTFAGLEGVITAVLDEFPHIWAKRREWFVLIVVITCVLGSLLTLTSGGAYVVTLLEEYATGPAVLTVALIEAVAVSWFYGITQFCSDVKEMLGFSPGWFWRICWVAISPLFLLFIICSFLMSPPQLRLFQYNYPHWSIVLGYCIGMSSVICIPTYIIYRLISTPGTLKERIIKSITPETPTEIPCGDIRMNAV

IC50 [µM]	SMILES
> 17.3	CC(=O)OC1=C(CC=C(C)C)C(=O)[C@]2(C(=O)C(C)C)C(=O)[C@]1(CC=C(C)C)C[C@H](CC=C(C)C)[C@@]2(C)CCC=C(C)C [HYPERFORIN ACETATE]
> 18.7	CC(C)=C/C=C1\C(=O)[C@@]2(CC=C(C)C)C[C@H](CC=C(C)C)[C@@](C)(CCC=C(C)C)[C@](C(=O)C(C)C)(C1=O)C2=O
> 18.2	COC1=C(CC=C(C)C)C(=O)[C@]2(C(=O)C(C)C)C(=O)[C@]1(CC=C(C)C)C[C@H](CC=C(C)C)[C@@]2(C)CCC=C(C)C
> 18.1	CC(C)=CCC[C@]1(C)[C@@H](CC=C(C)C)C[C@]23C[C@@H](C(C)(C)O)OC2=C(CC=C(C)C)C(=O)[C@]1(C(=O)C(C)C)C3=O
> 18.1	CC(C)=CCC[C@]1(C)[C@@H](CC=C(C)C)C[C@]2(CC=C(C)C)C(=O)[C@@](O)(CC=C(C)C)C(=O)[C@@]1(C(=O)C(C)C)C2=O
> 13.7	CC(C)=CCC[C@]1(C)[C@@H](CC=C(C)C)C[C@@]2(CC=C(C)C)C(=O)[C@@]1(C(=O)C(C)C)C(=O)C(CC=C(C)C)=C2OC(=O)c1cc([N+](=O)[O-])cc([N+](=O)[O-])c1
> 18.7	C=C(C)[C@@H]1C[C@@]23C[C@H](CC=C(C)C)[C@@](C)(CCC=C(C)C)[C@](C(=O)C(C)C)(C(=O)C(CC=C(C)C)=C2O1)C3=O [DEHYDROFUROHYPERFORIN]
> 18.7	CC(C)=CCC[C@]1(C)[C@@H](CC=C(C)C)C[C@@]2(CC=C(C)C)C(=O)[C@]1(C(=O)C(C)C)C(=O)C1=C2OC(C)(C)C=C1 [DEHYDROHYPERFORIN]
> 18.2	CC(C)=CCC[C@]1(C)[C@@H](CC=C(C)C)C[C@]2(CC=C(C)C)C(=O)[C@](C)(CC=C(C)C)C(=O)[C@]1(C(=O)C(C)C)C2=O [C-Methylhyperforin]
> 18.1	CC(C)=CCC[C@]1(C)[C@@H](CC=C(C)C)C[C@]2(CC=C(C)C)C(=O)[C@]3(CC=C(C)C)O[C@@]2(O)[C@@]1(C(=O)C(C)C)C3=O
> 13.7	COc1cc(C(=O)OC2=C(CC=C(C)C)C(=O)[C@@]3(C(=O)C(C)C)C(=O)[C@]2(CC=C(C)C)C[C@H](CC=C(C)C)[C@@]3(C)CCC=C(C)C)cc(OC)c1OC [HYPERFORINTRIMETHOXYBENZOATE]

SMILES	IC50 [µM]
CC(C)=CCC[C@]1(C)[C@@H](CC=C(C)C)C[C@]2(CC=C(C)C)C(=O)C(CC=C(C)C)=C(O)[C@@]1(C(=O)C(C)C)C2=O	2.05
